# Measured values taken from patent US6444688B1, “Compounds and compositions with nitrogen-containing non-basic side chains” (Eli Lilly and Company, priority 1995, dated 2002).
# Experiments:
# [1] = test system: ovariectomized (OVX) rats; assay: Four day dosing regimen, post-menopausal rat model: wet uterine weight; assay type: in vivo, Sprague Dawley rats; conditions: OVX rats, oral, daily for 4 days
# Description: (§1) Animals were dosed daily for 4 days. […] A blood sample was collected by cardiac puncture.
# [2] = test system: uterine eosinophil peroxidase activity; assay: Uterine eosinophil peroxidase (EPO) assay, four day dosing; assay type: in vivo, Sprague Dawley rats; conditions: OVX rats, oral, daily for 4 days
# Description: as §1
# [3] = test system: MCF-7 breast adenocarcinoma cells; assay: MCF-7 proliferation assay (tritiated thymidine); assay type: cell-based; conditions: Homo sapiens, MCF7; MCF-7 cells, 48 hours with drug, tritiated thymidine pulse 4 hours; read-out: ED50 (the source's name)
# Description: MCF-7 breast adenocarcinoma cells (ATCC HTB 22) were maintained in MEM (minimal essential medium, phenol red-free, Sigma, St. Louis, Mo.) supplemented with 10% fetal bovine serum (FBS) (V/V), L-glutamine (2 mM), sodium pyruvate (1 mM), HEPES {(N-[2-hydroxyethyl]piperazine-N′-[2-ethanesulfonic acid]10 mM}, non-essential amino acids and bovine insulin (1 μg/ml) (maintenance medium). Ten days prior to assay, MCF-7 cells were switched to maintenance medium supplemented with 10% dextrancoated charcoal stripped fetal bovine serum (DCC-FBS) assay medium) in place of 10% FBS to deplete internal stores of steroids. MCF-7 cells were removed from maintenance flasks using cell dissociation medium (Ca++/Mg++ free HBSS (phenol red-free) supplemented with 10 mM HEPES and 2 mM EDTA). Cells were washed twice with assay medium and adjusted to 80,000 cells/ml. Approximately […] (8,000 cells) were added to flat-bottom microculture wells (Costar 3596) and incubated at 37° C. in a 5% CO2 humidified incubator for 48 hours to allow for cell adherence and equilibration after transfer. Serial dilutions of drugs or DMSO as a diluent control were prepared in assay medium and […] to triplicate microcultures followed by […] assay medium for a final volume of […]. […] Samples were counted by liquid scintillation. […]
# [4] = test system: ovariectomized (OVX) rats; assay: Serum cholesterol analysis, four day dosing; assay type: in vivo, Sprague Dawley rats; conditions: Rattus norvegicus, po, 96 h, OVX rats, oral, daily for 4 days, read-out: Serum Cholesterol (% dec. OVX)
# Description: as §1
# Blood samples were allowed to clot at room temperature for 2 hours, and serum was obtained following centrifugation for 10 minutes at 3000 rpm. Serum cholesterol was determined using a Boehringer Mannheim Diagnostics high performance cholesterol assay. Briefly the cholesterol was oxidized to cholest-4-en-3-one and hydrogen peroxide. The hydrogen peroxide was then reacted with phenol and 4-aminophenazone in the presence of peroxidase to produce a p-quinone imine dye, which was read spectrophotemetrically at 500 nm. Cholesterol concentration was then calculated against a standard curve. The entire assay was automated using a Biomek Automated Workstation.
structure (smiles),measurement,setting,value
COc1ccc(-c2sc3cc(OC)ccc3c2C(=O)c2ccc(OCC(=O)N3CCCCC3)cc2)cc1 [Compound 7],Uterine Weight (% inc. OVX),[1]; dose 0.1 mg/kg,−0.5 % inc. OVX
same,Uterine Weight (% inc. OVX),[1]; dose 1 mg/kg,−16.2 % inc. OVX
same,Uterine Weight (% inc. OVX),[1]; dose 10 mg/kg,8.4 % inc. OVX
same,Uterine EPO (Vmax),[2]; dose 0.1 mg/kg,5.2 Vmax
same,Uterine EPO (Vmax),[2]; dose 1 mg/kg,3.7 Vmax
same,Uterine EPO (Vmax),[2]; dose 10 mg/kg,4.7 Vmax
same,EC50,[3],> 1 µM
same,inhibition in vivo at 0.1 mg/kg,[4]; dose 0.1 mg/kg,3.4%
same,inhibition in vivo at 1 mg/kg,[4]; dose 1 mg/kg,14.6%
same,inhibition in vivo at 10 mg/kg,[4]; dose 10 mg/kg,-41.9%
